Experimental data reported in paper PMC7129073 (Clinical Microbiology and Infection, 2015).
≈ marks a conversion by molar mass, not a printed value.

Tests used:
Streptococcus pneumoniae [1] = test: Susceptibility testing; type: cell-based; conditions: 99 isolates tested
E. coli [2] = test: Disk diffusion, urine isolates of BPH patients; conditions: strains isolated after operative intervention
[3] = test system: Salmonella serotype Typhimurium; test: Disk diffusion, food isolates Spain; type: cell-based; conditions: n = 53
P. aeruginosa [4] = test: Disk diffusion, urine isolates of BPH patients
[5] = test system: biofilms of S. aureus (SA204 and SA195) and S. epidermidis (ATCC35983 and ATCC35984); test: Antibiotic lock, in vitro biofilm on polyurethane film, viable counts; type: cell-based, Staphylococcus species; conditions: any of the time intervals examined
S. aureus SCVs = test: Resistance of small colony variants from cystic fibrosis patients; type: cell-based, Staphylococcus aureus; conditions: CF patients, Frankfurt 2004
K. pneumoniae = test: MIC; type: cell-based, Klebsiella pneumoniae; conditions: BSAC
[6] = test system: viridans group streptococci (VGS); test: MIC; type: cell-based
Staphylococcus aureus [7] = test: Susceptibility testing; type: cell-based; conditions: conjunctival isolates 2000–2004
Acinetobacter = test: Disk diffusion; type: cell-based; conditions: 37 isolates selected as resistant to beta-lactams
[8] = test system: Salmonella serotype Enteritidis; test: Disk diffusion, food isolates Spain; type: cell-based; conditions: n = 96
Staphylococcus aureus [9] = test: EARSS Ireland, invasive isolates; type: cell-based
Haemophilus influenzae = test: Susceptibility testing; type: cell-based; conditions: conjunctival isolates 2000–2004
[10] = test system: glycopeptide intermediate Staphylococcus species (GISS); test: VITEK II, screening plate and E test, blood isolates; type: cell-based, coagulase-negative Staphylococci; conditions: 73 GISS strains
K. oxytoca = test: E-test susceptibility; type: cell-based, Klebsiella oxytoca
[11] = test system: Staphylococcus coagulase negative (CNS); test: Susceptibility testing; type: cell-based; conditions: conjunctival isolates 2000–2004
E. coli [12] = test: E-test susceptibility; type: cell-based, Escherichia coli
[13] = test system: Salmonella, other 49 serotypes; test: Disk diffusion, food isolates Spain; type: cell-based; conditions: n = 115
Enterobacter spp = test: E-test susceptibility; type: cell-based
Escherichia coli = test: EARSS Ireland, invasive isolates; type: cell-based; conditions: Jan'01–Jun'04, 2432 isolates
enterococci = test: Disk diffusion, urine isolates of BPH patients; conditions: strains isolated post-operatively
Escherichia coli (ECO) = test: Broth microdilution; type: cell-based; conditions: 2001
nontyphoidal Salmonella = test: Agar dilution, isolates from chickens 1998–2004; type: cell-based, Salmonella spp.
Shigella spp. = test: Disk diffusion, stool isolates Tehran; type: cell-based; conditions: 96 isolates
[14] = test system: Streptococcus pneumoniae (SPN); test: MIC; type: cell-based; conditions: 8378 isolates
S. pneumoniae [15] = test: PROTEKT Italy, NCCLS microdilution; type: cell-based, Streptococcus pneumoniae
[16] = test system: Haemophilus influenzae (HI); test: MIC; type: cell-based; conditions: 7489 isolates
[17] = test system: Moraxella catarrhalis (MC); test: MIC; type: cell-based; conditions: 2497 isolates
[18] = test system: Streptococcus pyogenes (SPY); test: MIC; type: cell-based; conditions: 2522 isolates
S. pyogenes [19] = test: PROTEKT Italy, NCCLS microdilution; type: cell-based, Streptococcus pyogenes; conditions: year 1: 2002
[20] = test system: beta-haemolytic streptococcal isolates; test: Disk diffusion; type: cell-based, beta-haemolytic streptococci; conditions: 228 isolates
C. difficile = test: E-test, isolates from a department of surgery; type: cell-based, Clostridium difficile; conditions: Clostridioides difficile, read-out: MIC of high level resistant strains
S. pneumoniae [21] = test: Broth microdilution; type: cell-based, Streptococcus pneumoniae
H.influenzae = test: Broth microdilution; type: cell-based, Haemophilus influenzae; conditions: Haemophilus influenzae
S. pneumoniae (SPN) = test: SENTRY Brazil, NCCLS broth microdilution; type: cell-based, Streptococcus pneumoniae
S. pyogenes [22] = test: Sensitivity of CAP pathogens with/without antibiotic pretreatment; type: cell-based, Streptococcus pyogenes; conditions: Abs. 4
Streptococcus pneumoniae [23] = test: BSAC agar dilution, lower respiratory isolates UK and Ireland; type: cell-based
[24] = test system: Other non-fermenting bacteria; test: Sensitivity of CAP pathogens with/without antibiotic pretreatment; type: cell-based
E. coli [25] = test: as above; type: cell-based, Escherichia coli
[26] = test system: pathogens in community acquired pneumonia of different severity; test: Sensitivity of CAP pathogens by Fine severity group; type: cell-based
S. aureus = test: Sensitivity of CAP pathogens with/without antibiotic pretreatment; type: cell-based, Staphylococcus aureus
Other Haemophilus sp. = test: as above; type: cell-based
H. influenzae [27] = test: Disk diffusion, sputum isolates Athens 2001–2004; type: cell-based, Haemophilus influenzae
P. aeruginosa [28] = test: Sensitivity of CAP pathogens with/without antibiotic pretreatment; type: cell-based, Pseudomonas aeruginosa; conditions: Abs. 3
S. pyogenes [29] = test: Broth microdilution; type: cell-based, Streptococcus pyogenes; conditions: 212 isolates
Staph. coaq (−) = test: Sensitivity of CAP pathogens with/without antibiotic pretreatment; type: cell-based, coagulase-negative Staphylococcus
Other Enterobacteriacae = test: as above; type: cell-based, Enterobacteriaceae
S. pneumoniae (Sp) = test: Broth microdilution, point prevalence study Spain; type: cell-based, Streptococcus pneumoniae; conditions: 360 isolates, February 2004; penicillin I+R
Moraxella spp. = test: Disk diffusion; type: cell-based; conditions: 35 isolates
Kl. pneumoniae = test: Sensitivity of CAP pathogens with/without antibiotic pretreatment; type: cell-based, Klebsiella pneumoniae
Enterococcus sp = test: as above; type: cell-based
ERSP = test: Broth microdilution; type: cell-based, Streptococcus pneumoniae
S. pneumoniae [30] = test: MIC of invasive strains, Saint George Hospital 2001–2004; type: cell-based, Streptococcus pneumoniae
S. -pneumoniae = test: Sensitivity of CAP pathogens with/without antibiotic pretreatment; type: cell-based, Streptococcus pneumoniae
PRSP = test: Broth microdilution; type: cell-based, Streptococcus pneumoniae
H. influenzae [31] = test: Sensitivity of CAP pathogens with/without antibiotic pretreatment; type: cell-based, Haemophilus influenzae
[32] = test system: Total pathogens in community acquired pneumonia; test: as above; type: cell-based
[33] = test system: ‘wild type’ Staphylococcus epidermidis skin isolates; test: NCCLS disk diffusion; type: cell-based; conditions: 52 isolates
H. influenzae [34] = test: Disk diffusion; type: cell-based, Haemophilus influenzae; conditions: 237 isolates
[35] = NCCLS breakpoints (Amox/Clav 2/1 mcg/mL)

CNC(C)C1CCC(N)C(OC2C(N)CC(N)C(OC3OCC(C)(O)C(NC)C3O)C2O)O1 (stereo not drawn) [gentamicin]
resistant isolates (Streptococcus pneumoniae [1]): 45.4%
resistance (E. coli [2]): 82.7%
resistance rate (NCCLS M100-S13) [3]: 4%
resistance (P. aeruginosa [4]): 86.7%
significant biofilm killing [5]: not achieved
resistance rate of SCV isolates (S. aureus SCVs): 46.2%
susceptibility category (K. pneumoniae): resistant
high-level resistance ([6]; 107 strains): 0.9%
resistant isolates (Staphylococcus aureus [7]): 12%
resistant isolates (Acinetobacter): 100.0%
resistance rate (NCCLS M100-S13) [8]: 1%
resistance amongst MRSA isolates (Staphylococcus aureus [9]; 1999): 58.4%
resistance amongst MRSA isolates (Staphylococcus aureus [9]; 2003): 13.1%
resistant isolates (Haemophilus influenzae): 1.6%
resistance rate [10]: 87,7%
Susceptible isolates (K. oxytoca; ICU): 100/100%
Susceptible isolates (K. oxytoca; non ICU): 100/100%
resistant isolates [11]: 17.9%
Susceptible isolates (E. coli [12]; ICU, SRGA breakpoints, tigecycline tentative S ≤2 μg/ml): 98/98%
Susceptible isolates (E. coli [12]; non ICU): 98/98%
resistance rate (NCCLS M100-S13) [13]: 0%
Susceptible isolates (Enterobacter spp; ICU): 99%
Susceptible isolates (Enterobacter spp; non ICU): 100%
resistant isolates (Escherichia coli): 3.7%
resistance (enterococci): 66.7%
susceptible (Escherichia coli (ECO); NAL-resistant isolates): 68.9%
susceptible (Escherichia coli (ECO); NAL-susceptible isolates): 91.2%
resistance (nontyphoidal Salmonella; Belgian collection (caecal samples; Belgium, France, Netherlands)): ≤ 1%
resistance (nontyphoidal Salmonella; Germany (carcass meat)): ≤ 1%
intermediatly resistant (Shigella spp.): 34%
sensitive (Shigella spp.): 54%

CC[C@H]1OC(=O)[C@H](C)C(=O)[C@H](C)[C@@H](O[C@@H]2O[C@H](C)C[C@H](N(C)C)[C@H]2O)[C@](C)(OC)C[C@@H](C)C(=O)[C@H](C)[C@H]2N(CCCCn3cnc(-c4cccnc4)c3)C(=O)O[C@]12C [telithromycin]
MIC90 [14]: 0.008 ig/ml
susceptible (S. pneumoniae [15]; year 1: 2002): 99.7%
susceptible (S. pneumoniae [15]; year 2: 2003): 99.1%
MIC50 [6]: 0.007 µg/mL (≈ 0.00862 µM)
MIC90 [6]: 2 µg/mL (≈ 2.46 µM)
MIC90 [16]: 4 ig/ml
MIC90 [17]: 0.12 ig/ml
MIC90 [18]: 0.008 ig/ml
Susceptibility (S. pyogenes [19]): 92.7%

CC[C@H]1OC(=O)[C@H](C)[C@@H](O[C@H]2C[C@@](C)(OC)[C@@H](O)[C@H](C)O2)[C@H](C)[C@@H](O[C@@H]2O[C@H](C)C[C@H](N(C)C)[C@H]2O)[C@](C)(O)C[C@@H](C)C(=O)[C@H](C)[C@@H](O)[C@]1(C)O [erythromycin]
Susceptible isolates [20]: 98%
MIC (C. difficile): > 256 µg/mL
%Sus (S. pneumoniae [21]; [35]): 71.2%
MIC90 (S. pneumoniae [21]; Streptococcus pneumoniae): > 32 µg/mL
MIC90 (H.influenzae): 8 µg/mL (≈ 10.9 µM)
% S (S. pneumoniae (SPN); 1998): 85%
% S (S. pneumoniae (SPN); 1999): 88%
% S (S. pneumoniae (SPN); 2000): 91%
% S (S. pneumoniae (SPN); 2001): 90%
% S (S. pneumoniae (SPN); 2002): 94%
% S (S. pneumoniae (SPN); 2003): 91%
% of sensitive strains (S. pyogenes [22]; after pretreatment): 100.0%
% of sensitive strains (S. pyogenes [22]; without pretreatment): 100.0%
resistance (PEN-NS >0.06, TET-R >1, ERY-R >0.5, CIP-R >2 mg/L) (Streptococcus pneumoniae [23]; Ireland 1999–2000, N 66): 27.3%
resistance (same cut-offs) (Streptococcus pneumoniae [23]; Ireland 2000–2001, N 59): 23.7%
resistance (same cut-offs) (Streptococcus pneumoniae [23]; Ireland 2001–2002, N 68): 25.0%
resistance (same cut-offs) (Streptococcus pneumoniae [23]; Ireland 2002–2003, N 89): 12.4%
resistance (same cut-offs) (Streptococcus pneumoniae [23]; Ireland 2003–2004, N 76): 9.2%
resistance (same cut-offs) (Streptococcus pneumoniae [23]; UK 1999–2000, N 595): 11.8%
resistance (same cut-offs) (Streptococcus pneumoniae [23]; UK 2000–2001, N 608): 10.0%
resistance (same cut-offs) (Streptococcus pneumoniae [23]; UK 2001–2002, N 631): 10.8%
resistance (same cut-offs) (Streptococcus pneumoniae [23]; UK 2002–2003, N 683): 9.7%
resistance (same cut-offs) (Streptococcus pneumoniae [23]; UK 2003–2004, N 709): 10.6%
% of sensitive strains ([24]; after pretreatment, Abs. 0): 0.0%
% of sensitive strains ([24]; without pretreatment, Abs. 1): 0.0%
% of sensitive strains (E. coli [25]; after pretreatment, Abs. 1): 0.0%
% of sensitive strains (E. coli [25]; without pretreatment, Abs. 5): 0.0%
sensitivity, total strains ([26]; higher severity group (Fine scores >70)): 26,3%
sensitivity, total strains ([26]; lower severity group (Fine scores <70)): 17.6%
significant biofilm killing [5]: not achieved
% of sensitive strains (S. aureus; after pretreatment, Abs. 4): 75.0%
% of sensitive strains (S. aureus; without pretreatment, Abs. 11): 45.5%
% of sensitive strains (Other Haemophilus sp.; after pretreatment, Abs. 11): 0.0%
% of sensitive strains (Other Haemophilus sp.; without pretreatment, Abs. 21): 00%
resistance rate (H. influenzae [27]; 2001–2002): 49.5%
resistance rate (H. influenzae [27]; 2003–2004): 58.0%
% of sensitive strains (P. aeruginosa [28]; after pretreatment): 0.0%
% of sensitive strains (P. aeruginosa [28]; without pretreatment): 0.0%
nonsusceptible (S. pyogenes [29]): 10.8%
MIC50 [6]: 0.12 µg/mL (≈ 0.164 µM)
MIC90 [6]: 256 µg/mL (≈ 349 µM)
% of sensitive strains (Staph. coaq (−); after pretreatment, Abs. 2): 50.0%
% of sensitive strains (Staph. coaq (−); without pretreatment, Abs. 4): 75.0%
% of sensitive strains (Other Enterobacteriacae; after pretreatment, Abs. 5): 0.0%
% of sensitive strains (Other Enterobacteriacae; without pretreatment, Abs. 2): 0.0%
resistance (S. pneumoniae (Sp)): 36%
Susceptible isolates (Moraxella spp.): 100%
% of sensitive strains (Kl. pneumoniae; after pretreatment, Abs. 5): 0.0%
% of sensitive strains (Kl. pneumoniae; without pretreatment, Abs. 4): 0.0%
% of sensitive strains (Enterococcus sp; after pretreatment, Abs. 0): 0.0%
% of sensitive strains (Enterococcus sp; without pretreatment, Abs. 1): 0.0%
%Sus (ERSP; [35]): 0.0%
MIC90 (ERSP; Streptococcus pneumoniae): > 32 µg/mL
% S (S. pneumoniae [30]): 82%
%R (S. pneumoniae [30]): 18%
% of sensitive strains (S. -pneumoniae; after antibiotic pretreatment, Abs. 3): 100.0%
% of sensitive strains (S. -pneumoniae; without antibiotic pretreatment, Abs. 13): 100.0%
%Sus (PRSP; [35]): 21.5%
MIC90 (PRSP; Streptococcus pneumoniae, PRSP): > 32 µg/mL
% of sensitive strains (H. influenzae [31]; after pretreatment, Abs. 10): 0.0%
% of sensitive strains (H. influenzae [31]; without pretreatment, Abs. 26): 0.0%
% of sensitive strains ([32]; after pretreatment, Abs. 48): 22.9%
% of sensitive strains ([32]; without pretreatment, Abs. 95): 26.3%
% resistant [33]: 46.2%
Susceptible isolates (H. influenzae [34]): 94%
